Data taken from patent US9983218B2, “Indole and indoline derivatives and methods of use thereof” (AbbVie Inc., priority 2008, dated 2018).
Read-outs that look alike come from different tables or passages of the source.

Tests used:
[1] = tested on: primary postnatal (P0) cortical cells; test: Neurite outgrowth assay (Aβ1-42-induced reduction of neurite outgrowth, high content microscopy); format: cell-based, rat; settings: Rattus norvegicus; maximum response relative to 300 nM dimebolin, at the concentration given; read-out: Maximum Effect (of % 300 nM Dimebolin)
Description: In addition to PC12 cells, other cellular model systems may also be used. Rat cortical cells were cultured and prepared for high content microscopy analysis as previously described (Hu, M.; Schurdak, M. E.; et al. High content screen microscopy analysis of Aβ1-42-induced neurite outgrowth reduction in rat primary cortical neurons: Neuroprotective effects of α7 neuronal nicotinic acetylcholine receptor ligands. Brain Res. 2007, 1151, 227-235.). Briefly, cortical cell cultures were plated at density of 5×10^5 cells/mL onto poly-D-lysine coated 96-well plates and maintained in a cell incubator at 37° C. with 5% CO2. Experiments were performed using 6-7 day-old cortical cell cultures by treating with test compounds. In some experiments, the effect of test compounds on reversing Aβ toxicity were also measured (Hu, M.; Schurdak, M. E.; et al. High content screen microscopy analysis of Aβ1-42-induced neurite outgrowth reduction in rat primary cortical neurons: Neuroprotective effects of α7 neuronal nicotinic acetylcholine receptor ligands. Brain Res. 2007, 1151, 227-235.). For assessment of neuroprotective effects, cells were first pretreated with test compounds for about 5 hours. Medium was then replaced with the medium containing freshly prepared about 5 μM Aβ1-42 peptide in the absence or presence of the test compounds for 3 days. The untreated group contained the same percentage of vehicle (DMSO) as in the treatment groups. Cells were fixed with approximately 4% paraformaldehyde containing 0.5% Hoechst 33342 for about 15 minutes, followed by three washes using PBS (pH 7.4) and blocked with 10% donkey serum in PBS for 1 hour at room temperature. The cells were then incubated overnight at about 4° C. with mouse anti-tubulin monoclonal antibody (1:100) for staining neurons and rabbit anti-GFAP (1:1000) for staining glia. In the next day, cells were incubated with FITC-labeled anti-mouse and TRITC-labeled anti-rabbit antibodies (1:1000) for about 1 hour at room temperature. After fixing and staining the cells, nuclei (360/400 nm excitation and 465/300 nm emission filters), neuron (475/350 nm excitation and 535/400 nm emission filters) and glial cell (535 nm excitation and 610 nm emission filters) images were collected using the ImageExpress Micro automatic fluorescent microscopy system (Molecular Devices, Sunnyvale, Calif.) employing a Nikon 10× Plan Fluor objective and Cool Snap HQ CCD camera. The Neurite Outgrowth module in the MetaMorph Imaging software was used to automatically count total cell number, number of neuron cells, and the extent of neurite outgrowth.
In the graph of FIG. 2, 100% response was the response observed for untreated cells. Exposure to Aβ1-42 produced a decrease in neurite outgrowth. Treatment of cells with compounds prior to and concomitantly with Aβ1-42 gave a neuroprotective effect with neurite outgrowth maintained or enhanced relative to untreated cells.

[2] = tested on: SK-N-SH human neuroblastoma cells; test: Serum deprivation/JC-1 mitochondrial membrane potential (MMP) assay; format: cell-based; settings: for Emax: SK-N-SH, read-out: JC-1 max %; for EC50: SK-N-SH cells, serum deprivation ~18 hours, JC-1 ratio normalized to peak value for 10 μM dimebolin, single curve fit to mean data of n=2-3, read-out: EC50
How it was run: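 Cells were serum-deprived ~18 h in MEM with or without compound (DMSO ≤1%), then stained with JC-1 for 35 min at 37° C. The red/green fluorescence ratio (560/595 vs 485/535 nm) was normalized to the peak response of 10 μM dimebolin. EC50 came from one curve fit to mean data (n=2-3, duplicates).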

[3] = Homo sapiens, percent maximal intensity in JC-1 ratio normalized to 10 μM dimebolin

Row | Compound | Emax [1] [%] | Emax [2, 3] [%] | EC50 ([2]; Homo sapiens) [µM] | EC50 [2] [µM] | JC-1 max % ([2]; percent maximal intensity in JC-1 ratio normalized to 10 μM dimebolin) [%]
1 | Cc1ccc2c(c1)c1c(n2CCc2cccc(C(F)(F)F)c2)C[C@@H]2CCC[C@H]1N2 [Example 135, (7S,11R)-2-methyl-5-{2-[3-(trifluoromethyl)phenyl]ethyl}-6,7,8,9,10,11-hexahydro-5H-7,11-epiminocycloocta[b]indole] | 126 |  |  |  | 
2 | c1ccc2c(c1)c1c(n2-c2ccc3ccncc3c2)C[C@H]2CC[C@@H]1N2 (single isomer, unassigned) [Example 279] | 108 | 209 | 5.49 |  | 
3 | O=c1ccnc2ccc(-n3c4c(c5cc(F)ccc53)CN3CCC4CC3)cn12 [Example 261, 7-(9-fluoro-1,3,4,5-tetrahydro-6H-2,5-ethanoazepino[4,3-b]indol-6-yl)-4H-pyrido[1,2-a]pyrimidin-4-one] | 104 | 160 | 5.72 |  | 
4 | Fc1ccc2c(c1)c1c(n2Cc2ccc(Br)cc2)C2CCN(CC2)C1 [Example 167, 6-(4-bromobenzyl)-9-fluoro-3,4,5,6-tetrahydro-1H-2,5-ethanoazepino[4,3-b]indole] | 92 | 149 | 4.71 |  | 
5 | Fc1ccc(Cn2c3c(c4cc(F)ccc42)CN2CCC3CC2)cc1 [Example 165, 9-fluoro-6-(4-fluorobenzyl)-3,4,5,6-tetrahydro-1H-2,5-ethanoazepino[4,3-b]indole] | 104 |  |  |  | 
6 | O=c1cnc2ccc(-n3c4c(c5ccccc53)CN3CCC4CC3)cc2[nH]1 [Example 274, 7-(1,3,4,5-tetrahydro-6H-2,5-ethanoazepino[4,3-b]indol-6-yl)quinoxalin-2(1H)-one] | 111 | 235 | 2.27 |  | 
7 | Fc1ccc2c(c1)c1c(n2-c2cccnc2)C2CCN(CC2)C1 [Example 264, 9-fluoro-6-(pyridin-3-yl)-3,4,5,6-tetrahydro-1H-2,5-ethanoazepino[4,3-b]indole] | 110 | 107 | 7.8 |  | 
8 | Cc1ccc2c(c1)[C@H]1CN3CCC(CC3)[C@H]1N2CCc1ccc(C)nc1 (relative stereo) [Example 158, (5aR*,10bS*)-9-methyl-6-[2-(6-methylpyridin-3-yl)ethyl]-3,4,5,5a,6,10b-hexahydro-1H-2,5-ethanoazepino[4,3-b]indole] | 110 |  |  |  | 
9 | Cc1ccc2c(c1)c1c(n2CCc2cccc(C(F)(F)F)c2)C[C@H]2CCC[C@@H]1N2 (single isomer, unassigned) [Example 133] | 108 |  |  |  | 
10 | Cc1ccc2c(c1)c1c(n2/C=C/c2ccc(C)nc2)C[C@@H]2CC[C@H]1N2C [Example 23, (7S,10R)-2,11-dimethyl-5-[(E)-2-(6-methylpyridin-3-yl)vinyl]-5,6,7,8,9,10-hexahydro-7,10-epiminocyclohepta[b]indole] |  | 332 | 3.32 |  | 
11 | Cc1ccc2c(c1)[C@H]1CN3CCC(CC3)[C@H]1N2CCc1ccc(C)nc1 (single isomer, unassigned) [Example 160] |  | 194 | 1.61 |  | 
12 | CN1[C@@H]2CC[C@H]1c1c(n(-c3ccc4ncccc4c3)c3ccccc13)C2 [Example 286, (7R,10S)-11-methyl-5-(quinolin-6-yl)-5,6,7,8,9,10-hexahydro-7,10-epiminocyclohepta[b]indole] |  | 239 | 4.41 |  | 
13 | Oc1ncnc2ccc(-n3c4c(c5cc(F)ccc53)CN3CCC4CC3)cc12 [Example 259, 6-(9-fluoro-1,3,4,5-tetrahydro-6H-2,5-ethanoazepino[4,3-b]indol-6-yl)quinazolin-4-ol] |  | 126 | 3.2 |  | 
14 | Fc1ccc2c(c1)c1c(n2-c2ccc3ncncc3c2)C2CCN(CC2)C1 [Example 227, 9-fluoro-6-quinazolin-6-yl-3,4,5,6-tetrahydro-1H-2,5-ethanoazepino[4,3-b]indole] |  | 266 | 3.62 |  | 
15 | Cc1ccc2c(c1)c1c(n2-c2ccc3ncccc3c2)C2CCN(CC2)C1 [Example 217, 9-methyl-6-quinolin-6-yl-3,4,5,6-tetrahydro-1H-2,5-ethanoazepino[4,3-b]indole] |  | 182 | 2.94 |  | 
16 | NC(=O)c1cc(-n2c3c(c4ccccc42)CN2CCC3CC2)ccc1N [Example 276, 2-amino-5-(3,4,5,6-tetrahydro-1H-2,5-ethanoazepino[4,3-b]indol-6(1H)-yl)benzamide] |  |  |  | 6.65 | 80.55
17 | O=c1ccnc2ccc(-n3c4c(c5ccccc53)[C@@H]3CC[C@H](C4)N3)cn12 (single isomer, unassigned) [Example 284] |  | 108 | 7.62 |  | 
18 | Cc1ccc2c(c1)c1c(n2CCc2cnc(C)nc2)C[C@@H]2CC[C@H]1N2C [Example 32, (7S,10R)-2,11-dimethyl-5-[2-(2-methylpyrimidin-5-yl)ethyl]-5,6,7,8,9,10-hexahydro-7,10-epiminocyclohepta[b]indole] |  | 53 | 17.3 |  | 
19 | Cc1ccc2c(c1)c1c(n2CCc2cnc(C)cn2)C[C@H]2CC[C@@H]1N2C [Example 34, (7R,10S)-2,11-dimethyl-5-[2-(5-methylpyrazin-2-yl)ethyl]-5,6,7,8,9,10-hexahydro-7,10-epiminocyclohepta[b]indole] |  | 175 | 18.1 |  | 
20 | Cc1ccc(CCn2c3c(c4cc(-c5cn[nH]c5)ccc42)C2CCC(C3)N2C)cn1 (stereo not drawn) [Example 112, 11-methyl-5-[2-(6-methylpyridin-3-yl)ethyl]-2-(1H-pyrazol-4-yl)-5,6,7,8,9,10-hexahydro-7,10-epiminocyclohepta[b]indole] |  | 101 | 3.43 |  | 
21 | Cc1ccc2c(c1)c1c(n2-c2ccc3ccncc3c2)C[C@@H]2CC[C@H]1N2C [Example 68, (7S,10R)-5-isoquinolin-7-yl-2,11-dimethyl-5,6,7,8,9,10-hexahydro-7,10-epiminocyclohepta[b]indole] |  | 213 | 3.22 |  | 
22 | c1cc(N2CCOCC2)nc(-n2c3c(c4ccccc42)CN2CCC3CC2)c1 [Example 265, 6-[6-(morpholin-4-yl)pyridin-2-yl]-3,4,5,6-tetrahydro-1H-2,5-ethanoazepino[4,3-b]indole] |  | 264 | 1.84 |  | 
23 | Cc1ccc2c(c1)c1c(n2S(=O)(=O)c2ccccc2)CC2CCC1N2C (stereo not drawn) [Example 69, 2,11-dimethyl-5-(phenylsulfonyl)-5,6,7,8,9,10-hexahydro-7,10-epiminocyclohepta[b]indole] |  | 161 | 4.43 |  | 
24 | FC(F)(F)c1ccc(Cn2c3c(c4ccccc42)CN2CCC3CC2)cn1 [Example 256, 6-{[6-(trifluoromethyl)pyridin-3-yl]methyl}-3,4,5,6-tetrahydro-1H-2,5-ethanoazepino[4,3-b]indole] |  | 89.6 | 15.5 |  | 
25 | Cc1ccc2c(c1)c1c(n2CCc2ccccc2F)CC2CCC1N2C (stereo not drawn) [Example 43, 5-[2-(2-fluorophenyl)ethyl]-2,11-dimethyl-5,6,7,8,9,10-hexahydro-7,10-epiminocyclohepta[b]indole] |  | 202 | 7.64 |  | 
26 | c1ccc2c(c1)c1c(n2-c2ccc3cnccc3c2)C2CCN(CC2)C1 [Example 271, 6-(isoquinolin-6-yl)-3,4,5,6-tetrahydro-1H-2,5-ethanoazepino[4,3-b]indole] |  | 264 | 3.17 |  | 
27 | CN1C2CCC1c1c(n(CCc3ccc(Cl)cc3)c3ccc(C(F)(F)F)cc13)C2 (stereo not drawn) [Example 98, 5-[2-(4-chlorophenyl)ethyl]-11-methyl-2-(trifluoromethyl)-5,6,7,8,9,10-hexahydro-7,10-epiminocyclohepta[b]indole] |  | 176 | 7.26 |  | 
28 | Fc1ccc2c(c1)c1c(n2Cc2cccc3cccnc23)C2CCN(CC2)C1 [Example 251, 9-fluoro-6-(quinolin-8-ylmethyl)-3,4,5,6-tetrahydro-1H-2,5-ethanoazepino[4,3-b]indole] |  | 193 | 4.39 |  | 
